In the supplement of paper PMC11061612:

Legend:
Test in all cases: combination Emax (second highest fraction inhibited in the dose matrix, 72 h); higher = more inhibition; extreme values may be limits of the assay
[1] = tested on: Ramos-2G6-4C10 (Burkitt's Lymphoma)
How it was run: (§1)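 After 24 hours at 37°C and 5% CO2 in 1536-well plates, cells in DMEM/F12 or RPMI plus 10% FBS received two-drug dose matrices for 72 hours. Viability came from CellTiter-Glo 2.0 luminescence and was scaled as inhibition, anchored at 0 by vehicle wells and at 1 by blank wells. Combination Emax is taken as the second-highest inhibition in the matrix, and Bliss excess as the observed combination effect less EA + EB − EA·EB, with EA and EB the single-agent effects.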

[2] = tested on: KURAMOCHI (Ovarian Carcinoma)
How it was run: as §1

[3] = tested on: ME-1 (Acute Myeloid Leukemia)
How it was run: as §1

[4] = tested on: CaR-1 (Colorectal Carcinoma)
How it was run: as §1

[5] = tested on: Calu-3 (Lung Adenocarcinoma)
How it was run: as §1

[6] = tested on: CAL-148 (Breast Carcinoma)
How it was run: as §1

[7] = tested on: KELLY (Neuroblastoma)
How it was run: as §1

[8] = tested on: HCC-78 (Lung Adenocarcinoma)
How it was run: as §1

Structure (SMILES)	combination Emax [1]	combination Emax [2]	combination Emax [3]	combination Emax [4]	combination Emax [5]	combination Emax [6]	combination Emax [7]	combination Emax [8]
C[C@@H](Oc1cc(-c2cnn(C3CCNCC3)c2)cnc1N)c1c(Cl)ccc(F)c1Cl [Crizotinib] + Cn1cnc2c(F)c(Nc3ccc(Br)cc3Cl)c(C(=O)NOCCO)cc21 [Selumetinib] (first compound max 10 µM, 7x7, partner max 10 µM)	0.4	0.508	0.458	0.491	0.172	0.578	0.98	0.637
C[C@@H](Oc1cc(-c2cnn(C3CCNCC3)c2)cnc1N)c1c(Cl)ccc(F)c1Cl [Crizotinib] + CC1=C(C(=CC=C1)Cl)NC(=O)C2=CN=C(S2)NC3=CC(=NC(=N3)C)N4CCN(CC4)CCO [Dasatinib] (first compound max 10 µM, 7x7, partner max 2 µM)	0.586	0.909	0.258	0.943	0.767	0.578	0.991	0.754
CN(CCO)CC[C@H](CSc1ccccc1)Nc1ccc(S(=O)(=O)NC(=O)c2ccc(N3CCC([C@@H](O)c4ccccc4-c4ccc(Cl)cc4)CC3)cc2)cc1S(=O)(=O)C(F)(F)F [AZD4320] + Nc1ccn([C@@H]2O[C@H](CO)[C@@H](O)C2(F)F)c(=O)n1 [Gemcitabine] (first compound max 1 µM, 7x7, partner max 0.3 µM)	0.554	0.559	1	0.708	0.624	0.974	0.999	0.852
CC1(C)CCC(CN2CCN(c3ccc(C(=O)NS(=O)(=O)c4ccc(NCC5CCOCC5)c([N+](=O)[O-])c4)c(Oc4cnc5[nH]ccc5c4)c3)CC2)=C(c2ccc(Cl)cc2)C1 [Venetoclax] + CS(=O)(=O)CCNCc1ccc(-c2ccc3ncnc(Nc4ccc(OCc5cccc(F)c5)c(Cl)c4)c3c2)o1 [Lapatinib] (first compound max 1 µM, 7x7, partner max 10 µM)	0.241	0.341	1	0.308	0.74	0.235	0.947	0.143
CN(CCO)CC[C@H](CSc1ccccc1)Nc1ccc(S(=O)(=O)NC(=O)c2ccc(N3CCC([C@@H](O)c4ccccc4-c4ccc(Cl)cc4)CC3)cc2)cc1S(=O)(=O)C(F)(F)F [AZD4320] + CC(=O)O[C@H]1C(=O)[C@@]2(C)[C@H]([C@H](OC(=O)c3ccccc3)[C@]3(O)C[C@H](OC(=O)[C@H](O)[C@@H](NC(=O)c4ccccc4)c4ccccc4)C(C)=C1C3(C)C)[C@]1(OC(C)=O)CO[C@@H]1C[C@@H]2O [Paclitaxel] (first compound max 1 µM, 7x7, partner max 3 µM)	0.872	0.707	1	0.911	0.76	1	1	0.803
N#Cc1cnc(Nc2cc(NC[C@H]3CNCCO3)c(C(F)(F)F)cn2)cn1 [SRA737] + Nc1ccn([C@@H]2O[C@H](CO)[C@@H](O)C2(F)F)c(=O)n1 [Gemcitabine] (first compound max 10 µM, 7x7, partner max 0.3 µM)	0.976	0.673	0.66	0.67	0.67	0.845	1	0.906
C[C@@H](Nc1cc(F)cc(F)c1)c1cc(C(=O)N(C)C)cc2c(=O)cc(N3CCOCC3)oc12 [AZD8186] + CC(=O)c1c(C)c2cnc(Nc3ccc(N4CCNCC4)cn3)nc2n(C2CCCC2)c1=O [Palbociclib] (first compound max 10 µM, 7x7, partner max 10 µM)	0.302	0.28	0.233	0.471	0.281	0.655	0.434	0.365
C=CCn1c(=O)c2cnc(Nc3ccc(N4CCN(C)CC4)cc3)nc2n1-c1cccc(C(C)(C)O)n1 [AZD1775] + Nc1ccn([C@@H]2O[C@H](CO)[C@@H](O)C2(F)F)c(=O)n1 [Gemcitabine] (first compound max 1 µM, partner max 0.3 µM)	1	0.699	0.526	0.729	0.636	0.989	1	0.851
